According to EP4011367A1, “COMPOUNDS FOR USE IN THE TREATMENT OF COVID-19” (priority 2020, dated 2022):
pIC50: −log10 of the molar value. Counter-ions that a name gives are not always drawn. Like-named read-outs stand apart in the source and are kept apart here.

Target: T1, SARS-CoV-2 3CL-Pro (Severe acute respiratory syndrome coronavirus 2, UniProt P0DTD1)
T1 construct: SARS-CoV-2 main protease (3CL-Pro), also termed M-Pro
Assay: biochemical
Conditions: for inhibition at 20 µM: read-out: 3CL-Pro Inhibition [%] Primary Screen (20 µM)

[1] = dose response, 8 concentrations, absence of DTT, 60 min pre-incubation at 37 °C, 15 µM substrate, 60 nM enzyme, read-out: IC50

Row | SMILES | pIC50 [1] | inhibition at 20 µM | pIC50 (read-out: IC50) | pIC50 | 3CL-Pro Inhibition [%] Primary Screen (20 µM)
1 | CN(C)S(=O)(=O)c1cccc(-n2sc3ccccc3c2=O)c1 [compound 13, N,N-di methyl-3-(3-oxo-1,2-benzothiazol-2-yl)benzenesulfonamide] | 7.70 | 101% | – | – | –
2 | Oc1cc2c(cc1C(c1ccc(C(F)(F)F)cc1)N1CCOCC1)OCO2 (centres unmarked) [compound 70, 6-[morpholin-4-yl-[4-(trifluoromethyl)phenyl]methyl]-1,3-benzodioxol-5-ol] | – | 81.4% | 6.27 | – | –
3 | COc1cccc2c1C(=O)c1c(O)c3c(c(O)c1C2=O)C[C@@](O)(C(CO)=NNC(=O)CCCCCN1C(=O)C=CC1=O)C[C@@H]3O[C@H]1C[C@H](N)[C@H](O)[C@H](C)O1 [compound 72, N'-[1-[4(S)-(3-Amino-2,3,6-trideoxy-alpha-L-lyxo-hexopyranosyloxy)-2(S),5,12-trihydroxy-7-methoxy-6,11-dioxo-1,2,3,4,6,11-hexahydronaphthacen-2-yl]-2-hydroxyethylidene]-6-(2,5-dioxo-2,5-dihydro-1H-pyrrol-1-yl)hexanohydrazide hydrochloride] | – | 101% | – | 6.24 | –
4 | Cc1ccc(S(=O)(=O)C=CC#N)cc1 [compound 17, 3-(4-Methylphenylsulfonyl)-2-propenenitrile] | – | 95.7% | – | 6.09 | –
5 | O=C(O)c1cc(O)c2c(c1)[C@H]([C@H]1c3cc(C(=O)O)cc(O)c3C(=O)c3c(O[C@@H]4O[C@H](CO)[C@@H](O)[C@H](O)[C@H]4O)cccc31)c1cccc(O[C@@H]3O[C@H](CO)[C@@H](O)[C@H](O)[C@H]3O)c1C2=O [compound 81, (9R)-9-[(9R)-2-carboxy-4-hydroxy-10-oxo-5-[(2S,3R,4S,5S,6R)-3,4,5-trihydroxy-6-(hydroxymethyl)oxan-2-yl]oxy-9H-anthracen-9-yl]-4-hydroxy-10-oxo-5-[(2S,3R,4S,5S,6R)-3,4,5-trihydroxy-6-(hydroxymethyl)oxan-2-yl]oxy-9H-anthracene-2-carboxylic acid] | – | 103% | – | – | –
6 | CC[C@H](CO)Nc1nc(NCc2ccc(-c3ccccn3)cc2)c2ncn(C(C)C)c2n1 [compound 73, (2R)-2-[[9-propan-2-yl-6-[(4-pyridin-2-ylphenyl)methylamino]purin-2-yl]amino]butan-1-ol] | – | 99.5% | 6.08 | – | –
7 | Cc1ccc(S(=O)(=O)N[C@@H](Cc2ccccc2)C(=O)C(=O)CCl)cc1 [compound 21, N-[(2S)-5-chloro-3,4-dioxo-1-phenylpentan-2-yl]-4-methylbenzenesulfonamide] | – | 99.7% | – | 5.86 | –
8 | CC(=O)[O-].[Hg+][c]1ccccc1 [compound 42, acetyloxy(phenyl)mercury] | – | – | – | 8.00 | –
9 | O=c1cc(-c2ccccc2)oc2cc(O)c(O)c(O)c12 [compound 1, 5,6,7-Trihydroxy-2-phenyl-4H-1-benzopyran-4-one] | – | 97.8% | – | – | –
10 | O=C1C=CC(=O)C2=C1C1c3ccccc3C2c2ccccc21 [compound 61, Pentacyclo[6.6.6.0(2,7).0(9,14).0(15,20)]icosa-2(7),4,9,11,13,15,17,19-octaene-3,6-dione] | – | 99.2% | 6.62 | – | –
11 | O=[N+]([O-])c1cnc(Sc2nnc(O)n2-c2ccc3c(c2)OCCO3)s1 [compound 64, 4-(2,3-Dihydro-1,4-benzodioxin-6-yl)-5-(5-nitrothiazol-2-ylsulfanyl)-4H-1,2,4-triazol-3-ol] | – | 96.4% | 6.52 | – | –
12 | Nc1ccc(O)c2ncccc12 [compound 34, 5-aminoquinolin-8-ol] | – | 99.3% | 5.69 | – | –
13 | O=C(CCl)c1ccccc1 [compound 56, 2-chloro-1-phenylethanone] | – | 99.9% | 6.72 | – | –
14 | CN(C)C(=S)SC(=S)N(C)C [compound 75, dimethylcarbamothioyl N,N-dimethylcarbamodithioate] | – | – | 6.03 | – | –
15 | O=c1cc(-c2ccc(O)cc2)oc2cc(O)cc(O)c12 [compound 4, 4',5,7-Trihydroxyflavone] | – | 94.5% | 5.52 | – | –
16 | O=C1C2CC=CCC2C(=O)N1SC(Cl)(Cl)Cl (centres unmarked) [compound 23, 2-(trichloromethylsulfanyl)-3a,4,7,7a-tetrahydroisoindole-1,3-dione] | – | 99.8% | 6.17 | – | –
17 | [O-]n1ccccc1=S.[O-]n1ccccc1=S.[Zn+2] [compound 47, Bis[1-hydroxy-2(1H)-pyiridinethionato]zinc] | – | – | 5.61 | – | 99.7%
18 | c1ccc2sc(SNC3CCCCC3)nc2c1 [compound 26, N-(1,3-benzothiazol-2-ylsulfanyl)cyclohexanamine] | – | 70.1% | 6.11 | – | –
19 | C[C@@H]1O[C@@H](Oc2c(-c3cc(O)c(O)c(O)c3)oc3cc(O)cc(O)c3c2=O)[C@H](O)[C@H](O)[C@H]1O [compound 5, 5,7-Dihydroxy-4-oxo-2-(3,4,5-trihydroxyphenyl)-4H-1-benzopyran-3-yl alpha-L-rhamnopyranoside] | – | 90.6% | – | 5.44 | –
20 | Oc1cc2c(cc1O)[C@@H]1c3ccccc3CN[C@H]1CC2 (relative stereo) [compound 77, trans-10,11-Dihydroxy-5,6,6a,7,8,12b-hexahydrobenzo[a]phenanthridine] | – | – | – | 5.98 | –
21 | O=C(O)CCCCCCCCCCCCCCc1ccc(I)cc1 [compound 88, 15-(4-iodophenyl)pentadecanoic acid] | – | 95% | 5.65 | – | –

Row | SMILES | pIC50 [1] | inhibition at 20 µM | pIC50 (read-out: IC50) | pIC50 | 3CL-Pro Inhibition [%] Primary Screen (20 µM)
22 | C[N+]1(C)CCC(OC(=O)C(c2ccccc2)c2ccccc2)CC1 [compound 90, (1,1-dimethylpiperidin-1-ium-4-yl) 2,2-diphenylacetate;iodide] | – | 97.8% | – | 5.63 | –
23 | CC(C)(C)c1ccc(S(=O)(=O)/C=C/C#N)cc1 [compound 18, 3-(4-tert-Butylphenylsulfonyl)-2(E)-propenenitrile] | – | 100% | 6.08 | – | –
24 | Oc1cc(CNC(=S)C=Cc2cc(O)c(O)c(Br)c2)cc(O)c1O [compound 68, 3-(3-Bromo-4,5-dihydroxyphenyl)-N-(3,4,5-trihydroxybenzyl)-2-propenethioamide] | 6.32 | 79.4% | – | – | –
25 | CNC(=O)ON(C(C)=O)C(=O)NC [compound 80, N-[(Methylamino)carbonyl]-N-[[(methylamino)carbonyl]oxy]ace tamide] | – | 96.4% | 5.88 | – | –
26 | Nc1nnc(Sc2ncc([N+](=O)[O-])s2)s1 [compound 44, 5-(5-Nitrothiazol-2-ylsulfanyl)-1,3,4-thiadiazol-2-amine] | – | 99.9% | 7.52 | – | –
27 | O=C1C=Cc2cc(Br)ccc2C1=O [compound 32, 6-Bromonaphthalene-1,2-dione] | – | 102% | 7.40 | – | –
28 | CC(Cc1ccc(O)c(O)c1)C(C)Cc1ccc(O)c(O)c1 (centres unmarked) [compound 22, 4-[4-(3,4-dihydroxyphenyl)-2,3-dimethylbutyl]benzene-1,2-diol] | – | 98.5% | 5.59 | – | –
29 | Cc1ccc(C)c(-n2sc3cc(F)ccc3c2=O)c1 [compound 11, 2-(2,5-Dimethylphenyl)-6-fluoro-1,2-benzothiazol-3(2H)-one] | – | 101% | 7.70 | – | –
30 | O=[N+]([O-])C(Br)(CO)CO [compound 67, 2-bromo-2-nitropropane-1,3-diol] | – | 99.9% | 6.38 | – | –
31 | CN(C)CCNc1nc2cc(O)ccc2c2c1C(=O)c1ccccc1-2 [compound 38, 6-[2-(Dimethylamino)ethylamino]-3-hydroxy-7H-indeno[2,1-c]quinolin-7-one dihydrochloride] | – | 96.1% | 5.52 | – | –
32 | O=C(O)c1ccccc1-c1c2cc(Br)c(=O)cc-2oc2[c]([Hg][OH])c(O)c(Br)cc12 [compound 62, [2,7-dibromo-9-(2-carboxyphenyl)-3-hydroxy-6-oxoxanthen-4-yl]mercury;hydrate] | – | – | – | 6.62 | –
33 | On1ccccc1=S [compound 48, 1-hydroxypyridine-2-thione] | – | 101% | – | 7.30 | –
34 | C=CC1=C(C)C2=Cc3c(C=C)c(C)c4[n]3[Fe]([Cl])[n]3c(c(C)c(CCC(=O)O)c3=CC3=NC(=C4)C(C)=C3CCC(=O)O)=CC1=N2 [compound 74, - (SP-5-13)-Chloro[3,8,13,17-tetramethyl-7,12-divinyl-21H,23H-porphine-2,18-dipropanoato(4-)-kappa N21,kappaN22,kappaN23,kappaN24]dihydrogenoferrate(2-)] | – | – | – | 6.06 | –
35 | COc1ccc2[nH]c([S+]([O-])Cc3ncc(C)c(OC)c3C)nc2n1 (racemic) [compound 9, (±)-5-Methoxy-2-(4-methoxy-3,5-dimethylpyridin-2-ylmethylsulfinyl)imidazo[4,5-b]pyridine] | – | 69.1% | – | 6.01 | –
36 | CN1CC[C@@]2(C)c3cc(O)ccc3N(C)[C@@H]12 [compound 85, (3aS,8bR)-3,4,8b-trimethyl-2,3a-dihydro-1H-pyrrolo[2,3-b] indol-7-ol] | – | 91.5% | 5.70 | – | –
37 | COc1cc(C(=S)N2CCOCC2)ccc1O [compound 79, (4-hydroxy-3-methoxyphenyl)-orpholin-4-ylmethanethione] | – | 100% | 5.88 | – | –
38 | CN(C)C(=S)SSC(=S)N(C)C [compound 45, dimethylcarbamothioylsulfanyl N ,N-dimethylcarbamodithioate] | – | 99.9% | 7.30 | – | –
39 | O=C(O)C(S)C(S)C(=O)O (centres unmarked) [compound 82, 2,3-bis(sulfanyl)butanedioic acid] | – | 98.9% | – | 5.76 | –
40 | CN1CCN(C2=C(Cl)C(=O)N(c3ccc(Cl)c(Cl)c3)C2=O)CC1 [compound 16, 3-chloro-1-(3,4-dichlorophenyl)-4-(4-methylpiperazin-1-yl)pyrrole-2,5-dione] | – | 100% | – | – | –
41 | COCCCOc1ccnc(C[S+]([O-])c2nc3ccccc3[nH]2)c1C (centres unmarked) [compound 8, 2-[4-(3-Methoxypropoxy)-3-methylpyridin-2-ylmethylsulfinyl]benzimidazol-1-ide sodium salt] | – | 94.3% | 6.13 | – | –
